Laboratory results reported in US20260232767A1, “INTERLEUKIN-23 RECEPTOR ANTAGONIST PEPTIDES FOR USE IN THE TREATMENT OF PSORIASIS” (Janssen Pharmaceutica NV, priority 2023, published 2026).
Like-named read-outs stand apart in the source and are kept apart here.

Assay: Plasma concentrations (PK), Example 1
Type: in vivo, human
Details: for level at 1344 h: Week 8; for level at 168 h: Week 1, Trough; for level at 672 h: Week 4
Experimental: For QD dosing, peak concentration was defined as any PK sample taken between 0.25 to <6 hours after the last morning dose and trough concentration was at least 20 hours after the last morning dose. For BID dosing, peak concentration was defined as any PK sample taken between 0.25 to <4 hours after the last dose and trough concentration was at least 8 hours after the last dose.

[1] = human, plasma, oral, 50 mg, 50 mg QD, Peak, read-out: Plasma concentration, Geometric Mean
[2] = human, plasma, oral, 50 mg, 50 mg QD, Peak, read-out: Plasma concentration, Mean
[3] = human, plasma, oral, 50 mg, 50 mg QD, Peak, read-out: Plasma concentration, Median
[4] = human, plasma, oral, 100 mg, 100 mg BID, Intermediate, read-out: Plasma concentration, Geometric Mean
[5] = human, plasma, oral, 100 mg, 100 mg BID, Peak, read-out: Plasma concentration, Geometric Mean
[6] = human, plasma, oral, 100 mg, 100 mg BID, Peak, read-out: Plasma concentration, Mean
[7] = human, plasma, oral, 100 mg, 100 mg BID, Peak, read-out: Plasma concentration, Median
[8] = human, plasma, oral, 100 mg, 100 mg QD, Intermediate, read-out: Plasma concentration, Geometric Mean
[9] = human, plasma, oral, 100 mg, 100 mg QD, Peak, read-out: Plasma concentration, Geometric Mean
[10] = human, plasma, oral, 100 mg, 100 mg QD, Peak, read-out: Plasma concentration, Mean
[11] = human, plasma, oral, 100 mg, 100 mg QD, Peak, read-out: Plasma concentration, Median

CC(=O)NCCCC[C@@H]1NC(=O)[C@H](Cc2c[nH]c3c(C)cccc23)NC(=O)[C@H]([C@@H](C)O)NC(=O)[C@H](CC(N)=O)NC(=O)[C@@H](NC(C)=O)C(C)(C)SSC(C)(C)[C@@H](C(=O)N[C@@H](Cc2ccc(OCCN)cc2)C(=O)N[C@@H](Cc2ccc3ccccc3c2)C(=O)NC2(C(=O)N[C@@H](CCC(=O)O)C(=O)N[C@@H](CC(N)=O)C(=O)N[C@@H](Cc3cccnc3)C(=O)N(C)CC(N)=O)CCOCC2)NC1=O [IL-23 receptor antagonist peptide, Ac-[Pen]*-N-T-[W(7-Me)]-[Lys(Ac)]-[Pen]*-Phe[4-(2-aminoethoxy)]-[2-Nal]-[THP]-E-N-[3-Pal]-Sarc-NH2 (*[Pen]-[Pen]* formdisulfidebond)]
level at 1344 h (human, plasma, oral, 25 mg, 25 mg QD, Trough, read-out: Plasma concentration, Median): 0.06 ng/mL
level at 2016 h (human, plasma, oral, 25 mg, 25 mg QD, Week 12, Trough, read-out: Plasma concentration, Mean): 0.052 ng/mL
level at 2016 h (human, plasma, oral, 25 mg, weight >90 kg, 25 mg BID, Week 12, Intermediate, read-out: Plasma concentration, Geometric Mean): 0.214 ng/mL
level at 2016 h (human, plasma, oral, 25 mg, weight >90 kg, 25 mg BID, Week 12, Peak, read-out: Plasma concentration, Geometric Mean): 0.32 ng/mL
level at 2016 h (human, plasma, oral, 25 mg, weight >90 kg, 25 mg BID, Week 12, Peak, read-out: Plasma concentration, Mean): 0.391 ng/mL
level at 2016 h (human, plasma, oral, 25 mg, weight >90 kg, 25 mg BID, Week 12, Peak, read-out: Plasma concentration, Median): 0.365 ng/mL
level at 2688 h (human, plasma, oral, 25 mg, weight >90 kg, 25 mg BID, Week 16, Intermediate, read-out: Plasma concentration, Mean): 0.181 ng/mL
level at 2688 h (human, plasma, oral, 25 mg, weight >90 kg, 25 mg BID, Week 16, Trough, read-out: Plasma concentration, Geometric Mean): 0.144 ng/mL
level at 2688 h (human, plasma, oral, 25 mg, weight >90 kg, 25 mg BID, Week 16, Trough, read-out: Plasma concentration, Mean): 0.152 ng/mL
level at 2688 h (human, plasma, oral, 25 mg, weight >90 kg, 25 mg BID, Week 16, Trough, read-out: Plasma concentration, Median): 0.138 ng/mL
level at 168 h (human, plasma, oral, 25 mg, weight >90 kg, 25 mg QD, read-out: Plasma concentration, Mean): 0.044 ng/mL
level at 2016 h (human, plasma, oral, 25 mg, weight >90 kg, 25 mg QD, Week 12, Peak, read-out: Plasma concentration, Geometric Mean): 0.236 ng/mL
level at 2016 h (human, plasma, oral, 25 mg, weight >90 kg, 25 mg QD, Week 12, Peak, read-out: Plasma concentration, Mean): 0.281 ng/mL
level at 2016 h (human, plasma, oral, 25 mg, weight >90 kg, 25 mg QD, Week 12, Peak, read-out: Plasma concentration, Median): 0.291 ng/mL
level at 2688 h (human, plasma, oral, 25 mg, weight >90 kg, 25 mg QD, Week 16, Intermediate, read-out: Plasma concentration, Mean): 0.165 ng/mL
level at 2688 h (human, plasma, oral, 25 mg, weight >90 kg, 25 mg QD, Week 16, Trough, read-out: Plasma concentration, Geometric Mean): 0.063 ng/mL
level at 2688 h (human, plasma, oral, 25 mg, weight >90 kg, 25 mg QD, Week 16, Trough, read-out: Plasma concentration, Mean): 0.066 ng/mL
level at 2688 h (human, plasma, oral, 25 mg, weight >90 kg, 25 mg QD, Week 16, Trough, read-out: Plasma concentration, Median): 0.047 ng/mL
level at 2016 h (human, plasma, oral, 25 mg, weight ≤90 kg, 25 mg QD, Week 12, Trough, read-out: Plasma concentration, Mean): 0.045 ng/mL
level at 672 h [1]: 0.481 ng/mL
level at 672 h [2]: 0.564 ng/mL
level at 672 h [3]: 0.539 ng/mL
level at 1344 h (human, plasma, oral, 50 mg, 50 mg QD, Intermediate, read-out: Plasma concentration, Geometric Mean): 0.441 ng/mL
level at 1344 h (human, plasma, oral, 50 mg, 50 mg QD, Intermediate, read-out: Plasma concentration, Mean): 0.441 ng/mL
level at 1344 h (human, plasma, oral, 50 mg, 50 mg QD, Intermediate, read-out: Plasma concentration, Median): 0.441 ng/mL
level at 1344 h [1]: 0.853 ng/mL
level at 1344 h [2]: 1.1 ng/mL
level at 1344 h [3]: 0.78 ng/mL
level at 1344 h (human, plasma, oral, 50 mg, 50 mg QD, Trough, read-out: Plasma concentration, Geometric Mean): 0.111 ng/mL
level at 1344 h (human, plasma, oral, 50 mg, 50 mg QD, Trough, read-out: Plasma concentration, Mean): 0.147 ng/mL
level at 1344 h (human, plasma, oral, 50 mg, 50 mg QD, Trough, read-out: Plasma concentration, Median): 0.112 ng/mL
level at 2016 h (human, plasma, oral, 50 mg, 50 mg QD, Week 12, Trough, read-out: Plasma concentration, Mean): 0.085 ng/mL
level at 168 h (human, plasma, oral, 50 mg, weight >90 kg, 50 mg QD, read-out: Plasma concentration, Mean): 0.073 ng/mL
level at 2016 h (human, plasma, oral, 50 mg, weight >90 kg, 50 mg QD, Week 12, Peak, read-out: Plasma concentration, Geometric Mean): 0.551 ng/mL
level at 2016 h (human, plasma, oral, 50 mg, weight >90 kg, 50 mg QD, Week 12, Peak, read-out: Plasma concentration, Mean): 0.786 ng/mL
level at 2016 h (human, plasma, oral, 50 mg, weight >90 kg, 50 mg QD, Week 12, Peak, read-out: Plasma concentration, Median): 0.388 ng/mL
level at 2688 h (human, plasma, oral, 50 mg, weight >90 kg, 50 mg QD, Week 16, Intermediate, read-out: Plasma concentration, Mean): 0.321 ng/mL
level at 2688 h (human, plasma, oral, 50 mg, weight >90 kg, 50 mg QD, Week 16, Trough, read-out: Plasma concentration, Geometric Mean): 0.105 ng/mL
level at 2688 h (human, plasma, oral, 50 mg, weight >90 kg, 50 mg QD, Week 16, Trough, read-out: Plasma concentration, Mean): 0.096 ng/mL
level at 2688 h (human, plasma, oral, 50 mg, weight >90 kg, 50 mg QD, Week 16, Trough, read-out: Plasma concentration, Median): 0.115 ng/mL
level at 2016 h (human, plasma, oral, 50 mg, weight ≤90 kg, 50 mg QD, Week 12, Trough, read-out: Plasma concentration, Mean): 0.083 ng/mL
level at 672 h [4]: 0.756 ng/mL
level at 672 h [5]: 1.7 ng/mL
level at 672 h [6]: 2.05 ng/mL
level at 672 h [7]: 1.84 ng/mL
level at 1344 h [4]: 0.675 ng/mL
level at 1344 h (human, plasma, oral, 100 mg, 100 mg BID, Intermediate, read-out: Plasma concentration, Mean): 1.04 ng/mL
level at 1344 h (human, plasma, oral, 100 mg, 100 mg BID, Intermediate, read-out: Plasma concentration, Median): 0.84 ng/mL
level at 1344 h [5]: 1.86 ng/mL
level at 1344 h [6]: 3.55 ng/mL
level at 1344 h [7]: 1.44 ng/mL
level at 1344 h (human, plasma, oral, 100 mg, 100 mg BID, Trough, read-out: Plasma concentration, Geometric Mean): 0.664 ng/mL
level at 1344 h (human, plasma, oral, 100 mg, 100 mg BID, Trough, read-out: Plasma concentration, Mean): 0.961 ng/mL
level at 1344 h (human, plasma, oral, 100 mg, 100 mg BID, Trough, read-out: Plasma concentration, Median): 0.744 ng/mL
level at 2016 h (human, plasma, oral, 100 mg, 100 mg BID, Week 12, Trough, read-out: Plasma concentration, Mean): 1.1 ng/mL
level at 672 h [8]: 0.683 ng/mL
level at 672 h [9]: 0.968 ng/mL
level at 672 h [10]: 1.31 ng/mL
level at 672 h [11]: 1.34 ng/mL
level at 1344 h [8]: 0.235 ng/mL
level at 1344 h (human, plasma, oral, 100 mg, 100 mg QD, Intermediate, read-out: Plasma concentration, Mean): 0.235 ng/mL
level at 1344 h (human, plasma, oral, 100 mg, 100 mg QD, Intermediate, read-out: Plasma concentration, Median): 0.235 ng/mL
level at 1344 h [9]: 0.892 ng/mL
level at 1344 h [10]: 1.15 ng/mL
level at 1344 h [11]: 0.873 ng/mL
level at 1344 h (human, plasma, oral, 100 mg, 100 mg QD, Trough, read-out: Plasma concentration, Geometric Mean): 0.175 ng/mL
level at 1344 h (human, plasma, oral, 100 mg, 100 mg QD, Trough, read-out: Plasma concentration, Mean): 0.229 ng/mL
level at 1344 h (human, plasma, oral, 100 mg, 100 mg QD, Trough, read-out: Plasma concentration, Median): 0.149 ng/mL
level at 2016 h (human, plasma, oral, 100 mg, 100 mg QD, Week 12, Trough, read-out: Plasma concentration, Mean): 0.355 ng/mL
level at 2016 h (human, plasma, oral, 100 mg, weight >90 kg, 100 mg BID, Week 12, Intermediate, read-out: Plasma concentration, Geometric Mean): 0.601 ng/mL
level at 2016 h (human, plasma, oral, 100 mg, weight >90 kg, 100 mg BID, Week 12, Peak, read-out: Plasma concentration, Geometric Mean): 2.13 ng/mL
level at 2016 h (human, plasma, oral, 100 mg, weight >90 kg, 100 mg BID, Week 12, Peak, read-out: Plasma concentration, Mean): 6.41 ng/mL
level at 2016 h (human, plasma, oral, 100 mg, weight >90 kg, 100 mg BID, Week 12, Peak, read-out: Plasma concentration, Median): 1.29 ng/mL
level at 2688 h (human, plasma, oral, 100 mg, weight >90 kg, 100 mg BID, Week 16, Intermediate, read-out: Plasma concentration, Mean): 0.724 ng/mL
level at 2688 h (human, plasma, oral, 100 mg, weight >90 kg, 100 mg BID, Week 16, Trough, read-out: Plasma concentration, Geometric Mean): 0.522 ng/mL
level at 2688 h (human, plasma, oral, 100 mg, weight >90 kg, 100 mg BID, Week 16, Trough, read-out: Plasma concentration, Mean): 0.755 ng/mL
level at 2688 h (human, plasma, oral, 100 mg, weight >90 kg, 100 mg BID, Week 16, Trough, read-out: Plasma concentration, Median): 0.428 ng/mL
level at 2016 h (human, plasma, oral, 100 mg, weight >90 kg, 100 mg QD, Week 12, Intermediate, read-out: Plasma concentration, Geometric Mean): 0.75 ng/mL
level at 2016 h (human, plasma, oral, 100 mg, weight >90 kg, 100 mg QD, Week 12, Peak, read-out: Plasma concentration, Geometric Mean): 1.04 ng/mL
level at 2016 h (human, plasma, oral, 100 mg, weight >90 kg, 100 mg QD, Week 12, Peak, read-out: Plasma concentration, Mean): 1.04 ng/mL
level at 2016 h (human, plasma, oral, 100 mg, weight >90 kg, 100 mg QD, Week 12, Peak, read-out: Plasma concentration, Median): 1.09 ng/mL
level at 2688 h (human, plasma, oral, 100 mg, weight >90 kg, 100 mg QD, Week 16, Intermediate, read-out: Plasma concentration, Mean): 0.378 ng/mL
level at 2688 h (human, plasma, oral, 100 mg, weight >90 kg, 100 mg QD, Week 16, Trough, read-out: Plasma concentration, Geometric Mean): 0.102 ng/mL
level at 2688 h (human, plasma, oral, 100 mg, weight >90 kg, 100 mg QD, Week 16, Trough, read-out: Plasma concentration, Mean): 0.11 ng/mL
level at 2688 h (human, plasma, oral, 100 mg, weight >90 kg, 100 mg QD, Week 16, Trough, read-out: Plasma concentration, Median): 0.129 ng/mL
half-life (human, plasma, oral, read-out: Terminal elimination half-life): 9 to 12 h
Attainment of steady state conditions (oral daily dosing): ≤ 1 Week
